Experimental data published in ChEMBL document CHEMBL1201862, “PubChem BioAssay data set” (2004).
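Method: 48-hour compound exposure of cells in 96-well plates, five concentrations, linear interpolation of endpoints. GI50 = concentration required for 50% inhibition of growth.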 The source made the active and inactive calls. Cut-off read from the data, not from the text of the source: active = GI50 up to about 1.1 µM and inactive = higher.

Columns and labels:
Assay in all cases: NCI-60 cell line screen, 48 h
A549 = tested on: A549
EKVX = tested on: EKVX
M14 = tested on: M14
HT-29 = tested on: HT-29
HOP-18 = tested on: HOP-18
TK-10 = tested on: TK-10
SNB-75 = tested on: SNB-75
RPMI-8226 = tested on: RPMI-8226
DMS-114 = tested on: DMS-114
OVCAR-5 = tested on: OVCAR-5
UO-31 = tested on: UO-31
SN12C = tested on: SN12C
HCT-15 = tested on: HCT-15
RXF 393 = tested on: RXF 393
K562 = tested on: K562
OVCAR-4 = tested on: OVCAR-4
SR = tested on: SR
HL-60 = tested on: HL-60
NCI-H23 = tested on: NCI-H23
DLD-1 = tested on: DLD-1
DMS-273 = tested on: DMS-273
SK-MEL-2 = tested on: SK-MEL-2
HCC 2998 = tested on: HCC 2998
MOLT-4 = tested on: MOLT-4
U-251 = tested on: U-251
LOX IMVI = tested on: LOX IMVI
CCRF-CEM = tested on: CCRF-CEM
XF498 = tested on: XF498
SF-539 = tested on: SF-539
CAKI-1 = tested on: CAKI-1
HCT-116 = tested on: HCT-116
SK-MEL-28 = tested on: SK-MEL-28
SF-295 = tested on: SF-295
SF-268 = tested on: SF-268
SNB-19 = tested on: SNB-19
LXFL 529 = tested on: LXFL 529
UACC-257 = tested on: UACC-257
A498 = tested on: A498
COLO 205 = tested on: COLO 205
IGROV-1 = tested on: IGROV-1
SK-MEL-5 = tested on: SK-MEL-5
SW-620 = tested on: SW-620
ACHN = tested on: ACHN
KM12 = tested on: KM12
SNB-78 = tested on: SNB-78
NCI-H226 = tested on: NCI-H226
NCI-H460 = tested on: NCI-H460
HOP-92 = tested on: HOP-92
OVCAR-8 = tested on: OVCAR-8
Malme-3M = tested on: Malme-3M
786-0 = tested on: 786-0
HOP-62 = tested on: HOP-62
KM-20L2 = tested on: KM-20L2
NCI-H522 = tested on: NCI-H522
OVCAR-3 = tested on: OVCAR-3
UACC-62 = tested on: UACC-62
M19-MEL = tested on: M19-MEL
SK-OV-3 = tested on: SK-OV-3

## OCc1cc2ccncc2c2c1[nH]c1ccccc12
A549
  GI50: 4.37 µM (inactive)
EKVX
  GI50: 3.91 µM (inactive)
M14
  GI50: 13.2 µM (inactive)
HT-29
  GI50: 4.58 µM (inactive)
HOP-18
  GI50: 2.52 µM (inactive)
TK-10
  GI50: 11.8 µM (inactive)
SNB-75
  GI50: 4.51 µM (inactive)
RPMI-8226
  GI50: 6.31 µM (inactive)
DMS-114
  GI50: 6.38 µM (inactive)
OVCAR-5
  GI50: 3.95 µM (inactive)
UO-31
  GI50: 7.53 µM (inactive)
SN12C
  GI50: 5.42 µM (inactive)
HCT-15
  GI50: 5.64 µM
RXF 393
  GI50: 2.96 µM (inactive)
K562
  GI50: 7.55 µM (inactive)
OVCAR-4
  GI50: 6.95 µM (inactive)
SR
  GI50: 2.83 µM (inactive)
HL-60
  GI50: 4.84 µM (inactive)
NCI-H23
  GI50: 7.26 µM (inactive)
DLD-1
  GI50: 3.96 µM (inactive)
DMS-273
  GI50: 4.04 µM (inactive)
SK-MEL-2
  GI50: 12.1 µM (inactive)
HCC 2998
  GI50: 2.44 µM (inactive)
MOLT-4
  GI50: 3.66 µM (inactive)
U-251
  GI50: 6.25 µM (inactive)
LOX IMVI
  GI50: 3.44 µM (inactive)
CCRF-CEM
  GI50: 7.33 µM (inactive)
XF498
  GI50: 5.25 µM (inactive)
SF-539
  GI50: 3.72 µM (inactive)
CAKI-1
  GI50: 4.65 µM (inactive)
HCT-116
  GI50: 3.74 µM (inactive)
SK-MEL-28
  GI50: 9.35 µM (inactive)
SF-295
  GI50: 5.81 µM (inactive)
SF-268
  GI50: 4.66 µM (inactive)
SNB-19
  GI50: 6.49 µM (inactive)
LXFL 529
  GI50: 4.58 µM (inactive)
UACC-257
  GI50: 14.8 µM (inactive)
A498
  GI50: 4.5 µM (inactive)
COLO 205
  GI50: 6.82 µM (inactive)
IGROV-1
  GI50: 2.73 µM (inactive)
SK-MEL-5
  GI50: 8 µM (inactive)
SW-620
  GI50: 3.29 µM (inactive)
ACHN
  GI50: 3.83 µM (inactive)
KM12
  GI50: 4.68 µM (inactive)
SNB-78
  GI50: 13.2 µM (inactive)
NCI-H226
  GI50: 2.13 µM (inactive)
NCI-H460
  GI50: 2.76 µM (inactive)
HOP-92
  GI50: 12.1 µM (inactive)
OVCAR-8
  GI50: 4.95 µM (inactive)
Malme-3M
  GI50: 6.95 µM (inactive)

## O=C(/C=C/c1ccccc1)/C=C/c1ccccc1O
A549
  GI50: 23.9 µM (inactive)
EKVX
  GI50: 18.8 µM (inactive)
M14
  GI50: 21 µM (inactive)
HT-29
  GI50: 24.4 µM (inactive)
786-0
  GI50: 16.7 µM (inactive)
HOP-18
  GI50: 0.488 µM (active)
TK-10
  GI50: 30.1 µM (inactive)
RPMI-8226
  GI50: 16.4 µM (inactive)
HOP-62
  GI50: 38.8 µM (inactive)
DMS-114
  GI50: 17.8 µM (inactive)
OVCAR-5
  GI50: 29.3 µM (inactive)
UO-31
  GI50: 16.4 µM (inactive)
SN12C
  GI50: 16.2 µM (inactive)
HCT-15
  GI50: 15.9 µM
KM-20L2
  GI50: 19.1 µM (inactive)
RXF 393
  GI50: 20.8 µM (inactive)
K562
  GI50: 16.4 µM (inactive)
SR
  GI50: 26.6 µM (inactive)
HL-60
  GI50: 12.9 µM (inactive)
NCI-H23
  GI50: 24.9 µM (inactive)
DLD-1
  GI50: 18 µM (inactive)
SK-MEL-2
  GI50: 59.3 µM (inactive)
HCC 2998
  GI50: 12.5 µM (inactive)
MOLT-4
  GI50: 19.8 µM (inactive)
U-251
  GI50: 17.6 µM (inactive)
LOX IMVI
  GI50: 18.2 µM (inactive)
CCRF-CEM
  GI50: 17 µM (inactive)
XF498
  GI50: 49.1 µM (inactive)
NCI-H522
  GI50: 15.5 µM (inactive)
SF-539
  GI50: 22 µM (inactive)
CAKI-1
  GI50: 22 µM (inactive)
HCT-116
  GI50: 15.1 µM (inactive)
SK-MEL-28
  GI50: 34.6 µM (inactive)
SF-295
  GI50: 24.4 µM (inactive)
OVCAR-3
  GI50: 0.0401 µM (active)
UACC-62
  GI50: 19 µM (inactive)
SF-268
  GI50: 32.9 µM (inactive)
SNB-19
  GI50: 23.3 µM (inactive)
LXFL 529
  GI50: 16.8 µM (inactive)
UACC-257
  GI50: 20.8 µM (inactive)
A498
  GI50: 30.1 µM (inactive)
COLO 205
  GI50: 17.3 µM (inactive)
IGROV-1
  GI50: 18.7 µM (inactive)
SK-MEL-5
  GI50: 20.1 µM (inactive)
SW-620
  GI50: 11.6 µM (inactive)
ACHN
  GI50: 19.4 µM (inactive)
M19-MEL
  GI50: 17.9 µM (inactive)
KM12
  GI50: 17.8 µM (inactive)
SK-OV-3
  GI50: 19.1 µM (inactive)
SNB-78
  GI50: 37.3 µM (inactive)
NCI-H226
  GI50: 22 µM (inactive)
NCI-H460
  GI50: 19.1 µM (inactive)
HOP-92
  GI50: 83.8 µM (inactive)
OVCAR-8
  GI50: 17 µM (inactive)
Malme-3M
  GI50: < 0.01 µM (active)

## COc1ccccc1/N=C(\N)N/N=C/c1c[nH]c2ccccc12
A549
  GI50: 13.2 µM (inactive)
EKVX
  GI50: 11 µM (inactive)
M14
  GI50: 3.25 µM (inactive)
HT-29
  GI50: 4.01 µM (inactive)
786-0
  GI50: 13.3 µM (inactive)
HOP-18
  GI50: 18.6 µM (inactive)
TK-10
  GI50: 16.8 µM (inactive)
SNB-75
  GI50: 12.3 µM (inactive)
RPMI-8226
  GI50: 3.13 µM (inactive)
HOP-62
  GI50: 16.3 µM (inactive)
DMS-114
  GI50: 3.39 µM (inactive)
OVCAR-5
  GI50: 13.9 µM (inactive)
UO-31
  GI50: 13.3 µM (inactive)
SN12C
  GI50: 10.4 µM (inactive)
HCT-15
  GI50: 4.2 µM
KM-20L2
  GI50: 13.3 µM (inactive)
RXF 393
  GI50: 14.1 µM (inactive)
K562
  GI50: 2.22 µM (inactive)
OVCAR-4
  GI50: 16.8 µM (inactive)
SR
  GI50: 5.01 µM (inactive)
HL-60
  GI50: 7.29 µM (inactive)
NCI-H23
  GI50: 4.79 µM (inactive)
DLD-1
  GI50: 13.8 µM (inactive)
SK-MEL-2
  GI50: 6.46 µM (inactive)
HCC 2998
  GI50: 2.55 µM (inactive)
MOLT-4
  GI50: 3.13 µM (inactive)
U-251
  GI50: 11.6 µM (inactive)
LOX IMVI
  GI50: 10.4 µM (inactive)
CCRF-CEM
  GI50: 5.93 µM (inactive)
XF498
  GI50: 4.42 µM (inactive)
NCI-H522
  GI50: 3.65 µM (inactive)
SF-539
  GI50: 13.5 µM (inactive)
CAKI-1
  GI50: 13.3 µM (inactive)
HCT-116
  GI50: 6.81 µM (inactive)
SK-MEL-28
  GI50: 3.57 µM (inactive)
SF-295
  GI50: 8.97 µM (inactive)
OVCAR-3
  GI50: 12.2 µM (inactive)
UACC-62
  GI50: 11.5 µM (inactive)
SF-268
  GI50: 14.2 µM (inactive)
SNB-19
  GI50: 15.3 µM (inactive)
LXFL 529
  GI50: 2.23 µM (inactive)
UACC-257
  GI50: 2.39 µM (inactive)
COLO 205
  GI50: 1.67 µM (inactive)
IGROV-1
  GI50: 11 µM (inactive)
SK-MEL-5
  GI50: 2.78 µM (inactive)
SW-620
  GI50: 2.72 µM (inactive)
ACHN
  GI50: 10.3 µM (inactive)
M19-MEL
  GI50: 11.1 µM (inactive)
KM12
  GI50: 14.9 µM (inactive)
SK-OV-3
  GI50: 15.6 µM (inactive)
SNB-78
  GI50: 6.85 µM (inactive)
NCI-H226
  GI50: 14.4 µM (inactive)
NCI-H460
  GI50: 8.87 µM (inactive)
OVCAR-8
  GI50: 13 µM (inactive)
Malme-3M
  GI50: 2.58 µM (inactive)
